Data reported in the NIST ThermoML archive (doi:10.1016/j.jct.2004.08.003).

Columns and labels:
[1] = relative permittivity at various frequencies (dimensionless); xn = mol fraction of the nth substance listed; conditions: 101.3 kPa, Liquid, Frequency=1 MHz, HP4284A LCR Meter with HP16452A measuring cell
[2] = xn = mol fraction of the nth substance listed; conditions: 101.3 kPa, Liquid

COCCOCCOCCOC [2,5,8,11-tetraoxadodecane] + CCCCCCCCCCCC
Conditions | mass density, [2] [kg/m3] | relative permittivity, [1]
288.15 K, x1 = 0.0983 | 769.24 | –
288.15 K, x1 = 0.0993 | – | 2.3
288.15 K, x1 = 0.1981 | – | 2.61
288.15 K, x1 = 0.2007 | 788.2 | –
288.15 K, x1 = 0.2498 | – | 2.79
288.15 K, x1 = 0.2526 | 798.35 | –
288.15 K, x1 = 0.2974 | 807.41 | –
288.15 K, x1 = 0.3051 | – | 3.01
288.15 K, x1 = 0.396 | – | 3.4
288.15 K, x1 = 0.398 | 828.67 | –
288.15 K, x1 = 0.5011 | – | 3.92
288.15 K, x1 = 0.5097 | 853.81 | –
288.15 K, x1 = 0.5986 | 875.06 | –
288.15 K, x1 = 0.5991 | – | 4.51
288.15 K, x1 = 0.6981 | 900.28 | –
288.15 K, x1 = 0.7114 | – | 5.28
288.15 K, x1 = 0.7994 | – | 5.98
288.15 K, x1 = 0.8012 | 928.25 | –
288.15 K, x1 = 0.8996 | – | 6.87
288.15 K, x1 = 0.9009 | 957.48 | –
288.15 K, x1 = 0.9504 | – | 7.37
288.15 K, x1 = 0.951 | 973.13 | –
293.15 K, x1 = 0.0989 | 765.55 | –
293.15 K, x1 = 0.0992 | – | 2.3
293.15 K, x1 = 0.1969 | 783.56 | –
293.15 K, x1 = 0.2005 | – | 2.6
293.15 K, x1 = 0.2488 | 793.6 | –
293.15 K, x1 = 0.252 | – | 2.78
293.15 K, x1 = 0.2988 | – | 2.95
293.15 K, x1 = 0.3069 | 805.3 | –
293.15 K, x1 = 0.3978 | – | 3.37
293.15 K, x1 = 0.4006 | 825.05 | –
293.15 K, x1 = 0.5003 | – | 3.87
293.15 K, x1 = 0.5006 | 847.38 | –
293.15 K, x1 = 0.5981 | 870.51 | –
293.15 K, x1 = 0.6016 | – | 4.45
293.15 K, x1 = 0.698 | – | 5.08
293.15 K, x1 = 0.6989 | 895.89 | –
293.15 K, x1 = 0.7963 | 922.13 | –
293.15 K, x1 = 0.7995 | – | 5.85
293.15 K, x1 = 0.8997 | – | 6.73
293.15 K, x1 = 0.9032 | 953.28 | –
293.15 K, x1 = 0.9492 | – | 7.2
293.15 K, x1 = 0.95 | 967.84 | –
298.15 K, x1 = 0.088 | – | 2.25
298.15 K, x1 = 0.0984 | 761.73 | –
298.15 K, x1 = 0.1995 | 780.21 | –
298.15 K, x1 = 0.2006 | – | 2.58
298.15 K, x1 = 0.2494 | – | 2.74
298.15 K, x1 = 0.2511 | 790.16 | –
298.15 K, x1 = 0.3005 | 800.04 | –
298.15 K, x1 = 0.3046 | – | 2.95
298.15 K, x1 = 0.3988 | 820.63 | –
298.15 K, x1 = 0.4127 | – | 3.4
298.15 K, x1 = 0.496 | – | 3.8
298.15 K, x1 = 0.4974 | 842.53 | –
298.15 K, x1 = 0.5972 | – | 4.35
298.15 K, x1 = 0.598 | 866.25 | –
298.15 K, x1 = 0.6987 | – | 4.98
298.15 K, x1 = 0.6997 | 891.79 | –
298.15 K, x1 = 0.7954 | 917.48 | –
298.15 K, x1 = 0.8028 | – | 5.76
298.15 K, x1 = 0.9014 | 948.24 | –
298.15 K, x1 = 0.9022 | – | 6.61
298.15 K, x1 = 0.9504 | – | 7.07
298.15 K, x1 = 0.9513 | 963.73 | –
303.15 K, x1 = 0.0987 | 758.05 | –
303.15 K, x1 = 0.099 | – | 2.26
303.15 K, x1 = 0.1997 | – | 2.56
303.15 K, x1 = 0.2033 | 777 | –
303.15 K, x1 = 0.2498 | 785.94 | –
303.15 K, x1 = 0.2517 | – | 2.73
303.15 K, x1 = 0.2994 | 795.76 | 2.9
303.15 K, x1 = 0.3949 | 815.57 | –
303.15 K, x1 = 0.3976 | – | 3.3
303.15 K, x1 = 0.4991 | – | 3.76
303.15 K, x1 = 0.5002 | 838.84 | –
303.15 K, x1 = 0.5969 | – | 4.29
303.15 K, x1 = 0.5996 | 862.24 | –
303.15 K, x1 = 0.6979 | 886.84 | –
303.15 K, x1 = 0.699 | – | 4.94
303.15 K, x1 = 0.7996 | 914.11 | –
303.15 K, x1 = 0.8015 | – | 5.69
303.15 K, x1 = 0.9015 | 943.66 | –
303.15 K, x1 = 0.9058 | – | 6.55
303.15 K, x1 = 0.9494 | – | 6.96
303.15 K, x1 = 0.9509 | 958.94 | –
308.15 K, x1 = 0.0988 | – | 2.25
308.15 K, x1 = 0.1 | 754.59 | –
308.15 K, x1 = 0.1965 | – | 2.53
308.15 K, x1 = 0.1987 | 772.42 | –
308.15 K, x1 = 0.2471 | – | 2.7
308.15 K, x1 = 0.2494 | 782.08 | –
308.15 K, x1 = 0.2992 | 791.92 | –
308.15 K, x1 = 0.307 | – | 2.91
308.15 K, x1 = 0.3968 | 812.1 | –
308.15 K, x1 = 0.4071 | – | 3.31
308.15 K, x1 = 0.4983 | – | 3.73
308.15 K, x1 = 0.5058 | 836.19 | –
308.15 K, x1 = 0.5976 | 857.76 | –
308.15 K, x1 = 0.598 | – | 4.25
308.15 K, x1 = 0.6938 | – | 4.83
308.15 K, x1 = 0.6974 | 882.71 | –
308.15 K, x1 = 0.7997 | – | 5.57
308.15 K, x1 = 0.7998 | 910.17 | –
308.15 K, x1 = 0.9018 | – | 6.41
308.15 K, x1 = 0.9025 | 939.96 | –
308.15 K, x1 = 0.9501 | – | 6.86
308.15 K, x1 = 0.9512 | 955.04 | –
318.15 K, x1 = 0.0976 | 746.77 | –
318.15 K, x1 = 0.0989 | – | 2.23
318.15 K, x1 = 0.1979 | 764.58 | –
318.15 K, x1 = 0.2 | – | 2.51
318.15 K, x1 = 0.248 | 773.96 | –
318.15 K, x1 = 0.249 | – | 2.66
318.15 K, x1 = 0.297 | – | 2.82
318.15 K, x1 = 0.3015 | 784.34 | –
318.15 K, x1 = 0.3929 | – | 3.18
318.15 K, x1 = 0.4004 | 804.52 | –
318.15 K, x1 = 0.5013 | 826.47 | –
318.15 K, x1 = 0.5026 | – | 3.66
318.15 K, x1 = 0.6015 | – | 4.16
318.15 K, x1 = 0.6035 | 850.21 | –
318.15 K, x1 = 0.6959 | 873.06 | –
318.15 K, x1 = 0.7035 | – | 4.76
318.15 K, x1 = 0.7956 | 899.51 | –
318.15 K, x1 = 0.7989 | – | 5.4
318.15 K, x1 = 0.9004 | – | 6.19
318.15 K, x1 = 0.9025 | 930.16 | –
318.15 K, x1 = 0.949 | 944.39 | –
318.15 K, x1 = 0.9505 | – | 6.62
328.15 K, x1 = 0.0988 | – | 2.23
328.15 K, x1 = 0.0996 | 739.48 | –
328.15 K, x1 = 0.1986 | – | 2.49
328.15 K, x1 = 0.208 | 758.56 | –
328.15 K, x1 = 0.2483 | – | 2.62
328.15 K, x1 = 0.2561 | 767.51 | –
328.15 K, x1 = 0.3036 | 776.66 | –
328.15 K, x1 = 0.3062 | – | 2.81
328.15 K, x1 = 0.3961 | – | 3.14
328.15 K, x1 = 0.3988 | 795.88 | –
328.15 K, x1 = 0.4898 | 815.4 | –
328.15 K, x1 = 0.4986 | – | 3.56
328.15 K, x1 = 0.596 | – | 4.03
328.15 K, x1 = 0.5972 | 839.96 | –
328.15 K, x1 = 0.6906 | 862.83 | –
328.15 K, x1 = 0.6969 | – | 4.61
328.15 K, x1 = 0.7914 | – | 5.22
328.15 K, x1 = 0.8023 | 892.19 | –
328.15 K, x1 = 0.8935 | – | 5.99
328.15 K, x1 = 0.8988 | 919.73 | –
328.15 K, x1 = 0.9494 | – | 6.44
328.15 K, x1 = 0.9518 | 935.78 | –
